Laboratory results published in paper PMC4076210, “Discovery of Novel AKT Inhibitors with Enhanced Anti-Tumor Effects in Combination with the MEK Inhibitor” (PLoS ONE, 2014).
Like-named read-outs stand apart in the source and are kept apart here.

Legend:
Flt4(h) = molecular target: T1, Flt4(h) (Homo sapiens, UniProt P35916); assay: Kinase panel; type: biochemical
T1 construct: purchased Millipore KinaseProfiler

Pim-2(h) = molecular target: T2, Pim-2(h) (Homo sapiens, UniProt Q9P1W9); assay: Kinase panel; type: biochemical
T2 construct: purchased Millipore KinaseProfiler

VRK2(h) = molecular target: T3, VRK2(h) (Homo sapiens, UniProt Q86Y07); assay: Kinase panel; type: biochemical
T3 construct: purchased Millipore KinaseProfiler

Rsk1(h) = molecular target: T4, Rsk1(h) (Homo sapiens, UniProt Q15418); assay: Kinase panel; type: biochemical
T4 construct: purchased Millipore KinaseProfiler

TSSK2(h) = molecular target: T5, TSSK2(h) (Homo sapiens, UniProt Q96PF2); assay: Kinase panel; type: biochemical
T5 construct: purchased Millipore KinaseProfiler
T5 sequence (Q96PF2 1-358): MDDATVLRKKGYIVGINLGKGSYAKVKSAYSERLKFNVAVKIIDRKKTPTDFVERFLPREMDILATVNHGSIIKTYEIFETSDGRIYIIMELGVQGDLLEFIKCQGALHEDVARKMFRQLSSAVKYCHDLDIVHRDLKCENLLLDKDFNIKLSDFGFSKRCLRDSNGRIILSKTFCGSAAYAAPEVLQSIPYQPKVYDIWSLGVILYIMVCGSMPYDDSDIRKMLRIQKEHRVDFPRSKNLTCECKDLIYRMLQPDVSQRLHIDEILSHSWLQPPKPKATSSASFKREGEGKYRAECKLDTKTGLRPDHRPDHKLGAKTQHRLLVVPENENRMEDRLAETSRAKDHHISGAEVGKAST

cKit(h) = molecular target: T6, cKit(h) (Homo sapiens, UniProt P10721); assay: Kinase panel; type: biochemical
T6 construct: purchased Millipore KinaseProfiler

LOK(h) = molecular target: T7, LOK(h) (Homo sapiens, UniProt O94804); assay: Kinase panel; type: biochemical
T7 construct: purchased Millipore KinaseProfiler

Tie2(h) = molecular target: T8, Tie2(h) (Homo sapiens, UniProt Q02763); assay: Kinase panel; type: biochemical
T8 construct: purchased Millipore KinaseProfiler

RSK1 = RSK1 (Homo sapiens, UniProt Q15418); assay: Kinase IC50 assay; type: biochemical
Abl (Q252H) (h) = molecular target: T9, Abl (Q252H) (h) (Homo sapiens, UniProt P00519, Q252H); assay: Kinase panel; type: biochemical
T9 construct: purchased Millipore KinaseProfiler

EGFR(T790M,L858R)(h) = molecular target: T10, EGFR(T790M,L858R)(h) (Homo sapiens, UniProt P00533, L858R/T790M); assay: Kinase panel; type: biochemical
T10 construct: purchased Millipore KinaseProfiler

pGSK-3β in BT474 = assay: phospho-GSK3β ELISA; type: cell-based; details: Homo sapiens, BT-474; BT474, 1 h, mean ± std dev
Protocol: (§1) ELISA plates were prepared by coating with anti-GSK3β antibody (R&D Systems), and blocked with 5% Milk/0.1% Tween-20. Cells were seeded at 25,000 cells/96-well overnight and treated with DMSO or various concentrations of drug for 1 h. Cells were lysed in 20 mM Tris-HCl (pH 8.0), 137 mM NaCl, 2 mM EDTA, 10% glycerol and 1% Triton X-100 and lysates transferred to ELISA plates and incubated overnight. The plates were washed and incubated with rabbit anti-phospho-GSK3β (Ser9) antibody (R&D Systems) for 1 h. After washing, plates were developed using HRP-linked anti-rabbit IgG, and 3,3′,5,5′-tetramethylbenzidine as substrate. Absorption was measured in a microplate spectrophotometer at 450 nm. The phospho-PRAS40 ELISA followed similar methodology as above with the exception of using a commercially available PRAS40 (pThr246) kit (Biosource) and following manufacturers' instructions for the ELISA analysis.

pGSK-3β in LNCaP = assay: phospho-GSK3β ELISA; type: cell-based; details: Homo sapiens, 1 h, mean ± std dev
Protocol: as §1

CK2(h) = molecular target: T11, CK2(h) (Homo sapiens, UniProt P68400); assay: Kinase panel; type: biochemical
T11 construct: purchased Millipore KinaseProfiler

PTK5(h) = molecular target: T12, PTK5(h) (Homo sapiens, UniProt P42685); assay: Kinase panel; type: biochemical
T12 construct: purchased Millipore KinaseProfiler

BRK(h) = molecular target: T13, BRK(h) (Homo sapiens, UniProt Q13882); assay: Kinase panel; type: biochemical
T13 construct: purchased Millipore KinaseProfiler

mTOR(h) = molecular target: T14, mTOR(h) (Homo sapiens, UniProt P42345); assay: Kinase panel; type: biochemical
T14 construct: purchased Millipore KinaseProfiler

PRAK(h) = molecular target: T15, PRAK(h) (Homo sapiens, UniProt Q8IW41); assay: Kinase panel; type: biochemical
T15 construct: purchased Millipore KinaseProfiler
T15 sequence (Q8IW41 1-473): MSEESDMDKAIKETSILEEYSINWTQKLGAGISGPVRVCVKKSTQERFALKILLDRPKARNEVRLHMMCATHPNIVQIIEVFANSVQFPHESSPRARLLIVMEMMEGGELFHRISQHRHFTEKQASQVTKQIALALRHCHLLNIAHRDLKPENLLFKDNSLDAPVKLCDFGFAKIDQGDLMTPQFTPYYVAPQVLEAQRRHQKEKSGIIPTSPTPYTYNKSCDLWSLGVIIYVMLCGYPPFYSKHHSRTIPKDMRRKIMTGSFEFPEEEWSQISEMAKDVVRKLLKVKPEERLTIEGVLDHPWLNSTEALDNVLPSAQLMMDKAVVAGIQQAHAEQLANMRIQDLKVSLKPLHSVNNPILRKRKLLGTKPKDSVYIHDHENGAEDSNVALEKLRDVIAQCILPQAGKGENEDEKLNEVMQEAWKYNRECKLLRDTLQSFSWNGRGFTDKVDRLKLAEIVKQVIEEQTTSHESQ

MSSK1(h) = molecular target: T16, MSSK1(h) (Homo sapiens, UniProt Q9UPE1); assay: Kinase panel; type: biochemical
T16 construct: purchased Millipore KinaseProfiler

T4 sequence (Q15418 whole entry): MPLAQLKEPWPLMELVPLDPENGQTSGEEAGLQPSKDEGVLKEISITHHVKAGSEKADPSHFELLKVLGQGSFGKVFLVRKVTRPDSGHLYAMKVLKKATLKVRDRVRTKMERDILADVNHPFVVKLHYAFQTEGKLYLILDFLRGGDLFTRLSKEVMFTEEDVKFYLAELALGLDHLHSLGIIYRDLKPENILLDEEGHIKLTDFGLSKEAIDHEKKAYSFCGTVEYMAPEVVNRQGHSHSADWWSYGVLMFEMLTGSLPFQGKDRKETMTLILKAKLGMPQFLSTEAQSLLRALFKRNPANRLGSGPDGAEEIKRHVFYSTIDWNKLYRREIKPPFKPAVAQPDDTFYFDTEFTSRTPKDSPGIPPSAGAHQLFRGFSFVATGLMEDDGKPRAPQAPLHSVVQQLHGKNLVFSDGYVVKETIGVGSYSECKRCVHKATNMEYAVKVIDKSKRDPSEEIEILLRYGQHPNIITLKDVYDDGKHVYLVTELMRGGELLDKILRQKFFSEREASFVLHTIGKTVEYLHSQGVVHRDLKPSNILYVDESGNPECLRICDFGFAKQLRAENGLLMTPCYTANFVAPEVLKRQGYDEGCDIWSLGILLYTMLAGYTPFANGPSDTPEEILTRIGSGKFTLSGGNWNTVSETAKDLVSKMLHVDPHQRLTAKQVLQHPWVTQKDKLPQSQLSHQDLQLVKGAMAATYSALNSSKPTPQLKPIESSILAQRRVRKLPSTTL
T8 sequence (Q02763 23-1124): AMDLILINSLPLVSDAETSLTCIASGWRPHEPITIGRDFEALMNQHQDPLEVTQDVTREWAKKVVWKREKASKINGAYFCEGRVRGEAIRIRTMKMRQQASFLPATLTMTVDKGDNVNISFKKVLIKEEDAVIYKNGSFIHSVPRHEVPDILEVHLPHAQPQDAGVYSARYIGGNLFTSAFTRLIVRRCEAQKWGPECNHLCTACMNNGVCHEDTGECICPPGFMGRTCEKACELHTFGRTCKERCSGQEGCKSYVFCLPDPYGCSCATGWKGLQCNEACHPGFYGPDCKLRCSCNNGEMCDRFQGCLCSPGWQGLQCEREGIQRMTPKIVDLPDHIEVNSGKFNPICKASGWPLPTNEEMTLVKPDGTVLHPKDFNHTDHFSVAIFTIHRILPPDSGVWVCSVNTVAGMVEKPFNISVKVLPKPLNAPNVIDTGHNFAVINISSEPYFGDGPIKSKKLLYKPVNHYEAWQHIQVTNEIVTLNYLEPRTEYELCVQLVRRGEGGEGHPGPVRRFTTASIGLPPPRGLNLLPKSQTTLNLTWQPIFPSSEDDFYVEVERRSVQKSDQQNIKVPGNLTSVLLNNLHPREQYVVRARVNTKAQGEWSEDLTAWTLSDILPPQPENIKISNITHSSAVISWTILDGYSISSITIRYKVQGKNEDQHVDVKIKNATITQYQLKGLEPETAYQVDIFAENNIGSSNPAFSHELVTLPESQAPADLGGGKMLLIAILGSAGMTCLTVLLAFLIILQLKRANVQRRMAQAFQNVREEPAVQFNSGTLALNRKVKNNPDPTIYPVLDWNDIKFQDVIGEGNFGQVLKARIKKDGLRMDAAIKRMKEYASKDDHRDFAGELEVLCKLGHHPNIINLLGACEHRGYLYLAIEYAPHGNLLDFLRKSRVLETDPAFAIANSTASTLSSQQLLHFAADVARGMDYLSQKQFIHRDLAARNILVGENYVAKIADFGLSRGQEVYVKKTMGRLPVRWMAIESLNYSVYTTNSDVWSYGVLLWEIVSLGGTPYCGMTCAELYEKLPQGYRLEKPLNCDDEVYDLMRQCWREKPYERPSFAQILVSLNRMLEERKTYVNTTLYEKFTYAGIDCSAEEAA
T12 sequence (P42685 whole entry): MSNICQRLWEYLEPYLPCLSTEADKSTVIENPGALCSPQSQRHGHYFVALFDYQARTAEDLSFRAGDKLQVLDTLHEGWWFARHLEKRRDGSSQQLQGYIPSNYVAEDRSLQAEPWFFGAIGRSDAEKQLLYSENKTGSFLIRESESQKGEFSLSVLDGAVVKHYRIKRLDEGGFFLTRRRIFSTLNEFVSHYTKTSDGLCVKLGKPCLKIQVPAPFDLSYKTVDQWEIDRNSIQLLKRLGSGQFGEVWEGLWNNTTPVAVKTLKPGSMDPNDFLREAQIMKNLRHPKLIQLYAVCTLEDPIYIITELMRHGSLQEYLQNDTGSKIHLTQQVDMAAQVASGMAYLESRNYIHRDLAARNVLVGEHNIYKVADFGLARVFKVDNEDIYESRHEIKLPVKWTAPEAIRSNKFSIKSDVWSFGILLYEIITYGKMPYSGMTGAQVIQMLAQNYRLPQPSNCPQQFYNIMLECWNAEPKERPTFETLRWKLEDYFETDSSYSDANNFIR
T11 sequence (P68400 whole entry): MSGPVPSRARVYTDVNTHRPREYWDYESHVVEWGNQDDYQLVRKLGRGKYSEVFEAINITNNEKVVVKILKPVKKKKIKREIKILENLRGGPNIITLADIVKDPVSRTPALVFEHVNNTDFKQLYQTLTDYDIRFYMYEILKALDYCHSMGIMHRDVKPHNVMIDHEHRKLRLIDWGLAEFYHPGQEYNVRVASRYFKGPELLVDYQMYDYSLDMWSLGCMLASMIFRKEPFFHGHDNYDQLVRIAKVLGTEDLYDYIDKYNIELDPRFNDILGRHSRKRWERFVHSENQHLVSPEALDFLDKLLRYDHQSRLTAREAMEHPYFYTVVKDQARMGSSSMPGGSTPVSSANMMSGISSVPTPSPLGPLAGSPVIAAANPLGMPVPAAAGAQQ
T11 sequence (P67870 whole entry partner): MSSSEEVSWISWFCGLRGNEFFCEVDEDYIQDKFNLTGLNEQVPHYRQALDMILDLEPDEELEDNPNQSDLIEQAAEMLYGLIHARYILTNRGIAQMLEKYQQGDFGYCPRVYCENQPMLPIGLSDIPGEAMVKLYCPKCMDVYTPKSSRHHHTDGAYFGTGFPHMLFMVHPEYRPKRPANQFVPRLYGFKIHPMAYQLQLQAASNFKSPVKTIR
T6 sequence (P10721 26-976): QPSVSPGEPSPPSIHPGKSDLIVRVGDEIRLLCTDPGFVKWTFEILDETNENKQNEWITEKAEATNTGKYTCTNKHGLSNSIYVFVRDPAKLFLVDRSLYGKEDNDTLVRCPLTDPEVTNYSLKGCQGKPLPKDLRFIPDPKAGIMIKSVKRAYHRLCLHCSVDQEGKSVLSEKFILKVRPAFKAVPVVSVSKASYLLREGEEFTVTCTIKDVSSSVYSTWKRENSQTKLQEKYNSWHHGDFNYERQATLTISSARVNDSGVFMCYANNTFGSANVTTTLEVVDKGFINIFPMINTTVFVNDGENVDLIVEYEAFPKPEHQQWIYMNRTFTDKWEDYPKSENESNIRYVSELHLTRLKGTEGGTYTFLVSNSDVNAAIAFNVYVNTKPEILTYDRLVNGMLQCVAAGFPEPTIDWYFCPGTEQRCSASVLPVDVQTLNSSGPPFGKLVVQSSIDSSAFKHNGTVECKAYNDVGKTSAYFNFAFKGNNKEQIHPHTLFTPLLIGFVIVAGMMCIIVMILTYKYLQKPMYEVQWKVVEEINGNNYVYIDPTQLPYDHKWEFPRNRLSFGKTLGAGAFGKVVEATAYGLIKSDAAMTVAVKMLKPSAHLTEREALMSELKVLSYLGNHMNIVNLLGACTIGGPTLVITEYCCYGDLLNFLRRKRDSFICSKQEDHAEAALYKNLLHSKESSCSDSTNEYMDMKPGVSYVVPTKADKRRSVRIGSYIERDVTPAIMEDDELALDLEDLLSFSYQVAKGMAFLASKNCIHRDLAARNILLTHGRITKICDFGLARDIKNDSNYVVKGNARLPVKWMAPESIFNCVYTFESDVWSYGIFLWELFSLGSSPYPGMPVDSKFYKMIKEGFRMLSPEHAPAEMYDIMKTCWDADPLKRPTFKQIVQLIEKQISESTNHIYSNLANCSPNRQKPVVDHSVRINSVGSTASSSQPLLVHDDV
T3 sequence (Q86Y07 whole entry): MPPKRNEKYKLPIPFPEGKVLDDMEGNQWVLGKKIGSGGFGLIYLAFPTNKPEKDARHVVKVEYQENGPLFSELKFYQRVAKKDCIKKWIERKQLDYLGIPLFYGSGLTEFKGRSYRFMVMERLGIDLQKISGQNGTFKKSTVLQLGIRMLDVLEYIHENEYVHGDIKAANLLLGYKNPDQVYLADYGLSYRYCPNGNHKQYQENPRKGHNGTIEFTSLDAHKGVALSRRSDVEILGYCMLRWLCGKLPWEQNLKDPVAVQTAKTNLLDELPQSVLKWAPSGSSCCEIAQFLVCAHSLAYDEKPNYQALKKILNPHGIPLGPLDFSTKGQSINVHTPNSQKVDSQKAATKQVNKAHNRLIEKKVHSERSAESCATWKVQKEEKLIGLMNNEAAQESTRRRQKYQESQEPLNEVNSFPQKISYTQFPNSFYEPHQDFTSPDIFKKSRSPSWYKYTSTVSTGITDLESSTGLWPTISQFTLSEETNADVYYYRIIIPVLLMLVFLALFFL
T2 sequence (Q9P1W9 whole entry): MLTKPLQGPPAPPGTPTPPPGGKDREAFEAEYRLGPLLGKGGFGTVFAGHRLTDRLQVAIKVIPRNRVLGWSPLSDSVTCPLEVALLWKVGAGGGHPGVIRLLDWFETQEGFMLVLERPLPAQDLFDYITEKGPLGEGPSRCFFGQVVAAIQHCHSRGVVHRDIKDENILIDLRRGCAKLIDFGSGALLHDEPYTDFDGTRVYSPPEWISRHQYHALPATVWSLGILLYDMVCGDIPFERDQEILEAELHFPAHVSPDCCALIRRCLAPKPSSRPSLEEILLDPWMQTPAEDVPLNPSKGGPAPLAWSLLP
Chain of RSK1 (Q15418 whole entry): as the sequence (Q15418 whole entry) above

Structure (SMILES): Cn1ncc(Cl)c1-c1cc(C(=O)N[C@H](CN)Cc2cccc(F)c2)sc1Cl [GSK2110183]
- inhibition at 0.5 µM (Flt4(h)): 4%
- inhibition at 10 µM (Flt4(h)): 21%
- inhibition at 0.5 µM (Pim-2(h)): 5%
- inhibition at 10 µM (Pim-2(h)): 35%
- inhibition at 0.5 µM (VRK2(h)): -8%
- inhibition at 10 µM (VRK2(h)): -5%
- inhibition at 0.5 µM (Rsk1(h)): 49%
- inhibition at 10 µM (Rsk1(h)): 89%
- inhibition at 0.5 µM (TSSK2(h)): 4%
- inhibition at 10 µM (TSSK2(h)): 44%
- inhibition at 0.5 µM (cKit(h)): 13%
- inhibition at 10 µM (cKit(h)): 8%
- inhibition at 0.5 µM (LOK(h)): -9%
- inhibition at 10 µM (LOK(h)): 5%
- inhibition at 0.5 µM (Tie2(h)): -56%
- inhibition at 10 µM (Tie2(h)): -10%
- IC50 (RSK1): 316 nM
- inhibition at 0.5 µM (Abl (Q252H) (h)): 6%
- inhibition at 10 µM (Abl (Q252H) (h)): 11%
- inhibition at 0.5 µM (EGFR(T790M,L858R)(h)): -32%
- inhibition at 10 µM (EGFR(T790M,L858R)(h)): -3%
- IC50 (pGSK-3β in BT474): 316 ± 91 nM
- IC50 (pGSK-3β in LNCaP): 76 ± 16 nM
- inhibition at 0.5 µM (CK2(h)): 3%
- inhibition at 10 µM (CK2(h)): 8%
- inhibition at 0.5 µM (PTK5(h)): 4%
- inhibition at 10 µM (PTK5(h)): 18%
- inhibition at 0.5 µM (BRK(h)): 0%
- inhibition at 10 µM (BRK(h)): -2%
- inhibition at 0.5 µM (mTOR(h)): 17%
- inhibition at 10 µM (mTOR(h)): -9%
- inhibition at 0.5 µM (PRAK(h)): -35%
- inhibition at 10 µM (PRAK(h)): -57%
- inhibition at 0.5 µM (MSSK1(h)): -1%
- inhibition at 10 µM (MSSK1(h)): 12%

Structure (SMILES): Cn1ncc(Cl)c1-c1cc(C(=O)N[C@H](CN)Cc2ccc(F)c(F)c2)oc1Cl [GSK2141795]
- inhibition at 0.5 µM (Flt4(h); 0.5 µM, read-out: % Inhibition): -6%
- inhibition at 10 µM (Flt4(h); 10 µM, read-out: % Inhibition): 23%
- inhibition at 0.5 µM (Pim-2(h); 0.5 µM, read-out: % Inhibition): -7%
- inhibition at 10 µM (Pim-2(h); 10 µM, read-out: % Inhibition): 9%
- inhibition at 0.5 µM (VRK2(h); 0.5 µM, read-out: % Inhibition): -15%
- inhibition at 10 µM (VRK2(h); 10 µM, read-out: % Inhibition): -5%
- inhibition at 0.5 µM (Rsk1(h); 0.5 µM, read-out: % Inhibition): 44%
- inhibition at 10 µM (Rsk1(h); 10 µM, read-out: % Inhibition): 91%
- inhibition at 0.5 µM (TSSK2(h); 0.5 µM, read-out: % Inhibition): 7%
- inhibition at 10 µM (TSSK2(h); 10 µM, read-out: % Inhibition): 53%
- inhibition at 0.5 µM (cKit(h); 0.5 µM, read-out: % Inhibition): 0%
- inhibition at 10 µM (cKit(h); 10 µM, read-out: % Inhibition): -1%
- inhibition at 0.5 µM (LOK(h); 0.5 µM, read-out: % Inhibition): -14%
- inhibition at 10 µM (LOK(h); 10 µM, read-out: % Inhibition): 11%
- inhibition at 0.5 µM (Tie2(h); 0.5 µM, read-out: % Inhibition): -6%
- inhibition at 10 µM (Tie2(h); 10 µM, read-out: % Inhibition): 9%
- IC50 (RSK1): 200 nM
- inhibition at 0.5 µM (Abl (Q252H) (h); 0.5 µM, read-out: % Inhibition): -1%
- inhibition at 10 µM (Abl (Q252H) (h); 10 µM, read-out: % Inhibition): 3%
- inhibition at 0.5 µM (EGFR(T790M,L858R)(h); 0.5 µM, read-out: % Inhibition): -7%
- inhibition at 10 µM (EGFR(T790M,L858R)(h); 10 µM, read-out: % Inhibition): 18%
- IC50 (pGSK-3β in BT474): 143 ± 21 nM
- IC50 (pGSK-3β in LNCaP): 34 ± 5 nM
- inhibition at 0.5 µM (CK2(h); 0.5 µM, read-out: % Inhibition): 4%
- inhibition at 10 µM (CK2(h); 10 µM, read-out: % Inhibition): 9%
- inhibition at 0.5 µM (PTK5(h); 0.5 µM, read-out: % Inhibition): 11%
- inhibition at 10 µM (PTK5(h); 10 µM, read-out: % Inhibition): 70%
- inhibition at 0.5 µM (BRK(h); 0.5 µM, read-out: % Inhibition): -15%
- inhibition at 10 µM (BRK(h); 10 µM, read-out: % Inhibition): 25%
- inhibition at 0.5 µM (mTOR(h); 0.5 µM, read-out: % Inhibition): -16%
- inhibition at 10 µM (mTOR(h); 10 µM, read-out: % Inhibition): -4%
- inhibition at 0.5 µM (PRAK(h); 0.5 µM, read-out: % Inhibition): 2%
- inhibition at 10 µM (PRAK(h); 10 µM, read-out: % Inhibition): -17%
- inhibition at 0.5 µM (MSSK1(h); 0.5 µM, read-out: % Inhibition): -6%
- inhibition at 10 µM (MSSK1(h); 10 µM, read-out: % Inhibition): 10%
